Experiments:
astrocytes [1] = experiment: MTT cell viability under oxidative conditions (H2O2 pre-treatment); type: cell-based, mouse; conditions: for cell viability after post-treatment (in words): 200 μM H2O2 pre-treatment, then 50 μM LA, 100 nM vitD, 24 hours
astrocytes [2] = experiment: Production of ROS (superoxide anion release) under oxidative conditions; type: cell-based, mouse; conditions: for reduction of production of ROS with respect to H2O2 alone: post-treatment after 200 μM H2O2
ERK/MAPK [3] = experiment: ERK/MAPK activity (ELISA InstantOne) under oxidative conditions; type: cell-based, mouse; conditions: for ERK/MAPK activity without H2O2 (in words): 24 hours, 50 μM LA, 100 nM vitD; for ERK activity after post-treatment following H2O2 (in words): after 200 μM H2O2
PI3K-Akt = PI3K-Akt activity (ELISA InstantOne) under oxidative conditions; type: cell-based, mouse; conditions: for PI3K-Akt activity without H2O2 (in words): 24 hours, 50 μM LA, 100 nM vitD; for Akt activity after post-treatment following H2O2 (in words): after 200 μM H2O2
astrocytes [4] = experiment: MTT cell viability, dose- and time-dependent, physiological conditions; type: cell-based, mouse; conditions: 1440 min, 50 μM LA, 100 nM vitD
Description: The cultures of mouse astrocytes were prepared from male and female C57BL/6 baby mice, following a known conventional technique according to the national guidelines for the use and care of laboratory animals. Basically, within 24 hours from birth, the baby mice were euthanized and the corticals were cut, […] minced, mechanically digested and left to rest for 30 minutes at ambient temperature. The cell suspension was then centrifuged at 800 rpm (revolutions per minute) for 5 minutes. The pelleted cells were resuspended in neuronal basal medium (Sigma-Aldrich), supplemented with fetal bovine serum at 5% (FBS, Gibco), penicillin/streptomycin 1% (Sigma-Aldrich) and L-glutamine 2 mM (Sigma-Aldrich), placed in multiple wells and kept in culture for 6 days prior to the treatment. […] Cell viability was determined by measuring absorbance at 570 nm with correction at 690 nm, using a spectrometer (VICTOR X4, multi-label plate reader) and calculated by comparing the results with the control. […] Firstly, the effect depending on the concentration of LA alone (comprised between 10 μM and 100 μM) on the cell viability over 24 hours (starting from 15 minutes to 1440 minutes) was analysed, with the aim of identifying the best concentration to be used. FIG. 1(a) illustrates the time-dependent and dose-response studies (ranging from 10 μM to 100 μM) of LA measured in astrocytes.

astrocytes [5] = experiment: Mitochondrial membrane potential (JC-1) under oxidative conditions; type: cell-based, mouse; conditions: 50 μM LA, 100 nM vitD; for mitochondrial potential without H2O2 (in words): p<0.05; for dissipation of the mitochondrial potential after post-treatment, with respect to H2O2 alone (in words): after 200 μM H2O2
p53 [6] = experiment: Activity of p53 (ELISA on nuclear extracts) under oxidative conditions; type: cell-based, mouse; conditions: for activity of p53 without H2O2 vs control (in words): 50 μM LA, 100 nM vitD, p<0.05; for activity of p53 after H2O2 (in words): stimulation after 200 μM H2O2
cytochrome C = experiment: Western blot expression of cytochrome C under oxidative conditions; type: cell-based, mouse; conditions: for expression of cytochrome C without H2O2 (in words): 50 μM LA, 100 nM vitD; for expression of cytochrome C after H2O2 (in words): stimulation after H2O2, p<0.05
SOD3 [7] = experiment: Western blot expression of SOD3 under oxidative conditions; type: cell-based, mouse; conditions: post-stimulation after 200 μM H2O2
iNOS = experiment: Western blot expression of iNOS under oxidative conditions; type: cell-based, mouse; conditions: post-stimulation after 200 μM H2O2
PKA = experiment: Western blot expression of p-PKA under oxidative conditions; type: cell-based, mouse; conditions: for expression of PKA without H2O2 (in words): 50 μM LA, 100 nM vitD; for expression of PKA after H2O2 (in words): post-stimulation after 200 μM H2O2
astrocytes [8] = experiment: MTT cell viability in astrocytes pre-treated with Fe^3+; type: cell-based, mouse; conditions: for cell viability after post-treatment following Fe^3+ (in words): 300 μM Fe^3+ 6 days, then treatment another 6 days
astrocytes [9] = experiment: Production of ROS in astrocytes pre-treated with Fe^3+; type: cell-based, mouse; conditions: for reduction of production of ROS with respect to Fe^3+ alone: 300 μM Fe^3+ 6 days, then 50 μM LA, 100 nM vitD another 6 days
astrocytes [10] = experiment: Iron quantification assay in astrocytes pre-treated with Fe^3+; type: cell-based, mouse; conditions: for reduction of accumulation of iron against Fe^3+ alone: 300 μM Fe^3+ 6 days, then 50 μM LA, 100 nM vitD another 6 days
p53 [11] = experiment: Activity of p53 (ELISA) in astrocytes pre-treated with Fe^3+; type: cell-based, mouse; conditions: 300 μM Fe^3+ 6 days, then 50 μM LA, 100 nM vitD another 6 days
[12] = test system: amyloid precursor protein (APP); experiment: Quantification of APP (ELISA) in astrocytes pre-treated with Fe^3+; type: cell-based, mouse; conditions: for reduction of level of APP against 300 μM Fe^3+: 300 μM Fe^3+ 6 days, then 50 μM LA, 100 nM vitD another 6 days
SOD3 [13] = experiment: Western blot expression of SOD3 in astrocytes pre-treated with Fe^3+; type: cell-based, mouse; conditions: 300 μM Fe^3+ 6 days, then 50 μM LA or 100 nM vitD 6 more days, p<0.05
ERK/MAPK [14] = experiment: ERK/MAPK activity (ELISA) in astrocytes pre-treated with Fe^3+; type: cell-based, mouse; conditions: 300 μM Fe^3+ 6 days, then treatment another 6 days, p<0.05
[15] = test system: blood-brain barrier (BBB) experimental model; experiment: Blood-brain barrier (BBB) experimental model permeability (astrocytes/HUVEC Transwell co-culture); conditions: 1440 min; 100 nM vitD, 50 μM LA alone

| SMILES | cell viability, maximum effect with respect to the control (astrocytes [4]) | cell viability after post-treatment (in words) (astrocytes [1]) | reduction of production of ROS with respect to H2O2 alone (astrocytes [2]; 50 μM LA, 100 nM vitD) | mitochondrial potential without H2O2 (in words) (astrocytes [5]) | dissipation of the mitochondrial potential after post-treatment, with respect to H2O2 alone (in words) (astrocytes [5]) | activity of p53 without H2O2 vs control (in words) (p53 [6]) | activity of p53 after H2O2 (in words) (p53 [6]) | expression of cytochrome C without H2O2 (in words) (cytochrome C) | expression of cytochrome C after H2O2 (in words) (cytochrome C) | expression of SOD3 with respect to 200 μM of H2O2 (in words) (SOD3 [7]) | expression of iNOS with respect to 200 μM of H2O2 (in words) (iNOS) | expression of PKA without H2O2 (in words) (PKA) | expression of PKA after H2O2 (in words) (PKA) | ERK/MAPK activity without H2O2 (in words) (ERK/MAPK [3]) | ERK activity after post-treatment following H2O2 (in words) (ERK/MAPK [3]) | PI3K-Akt activity without H2O2 (in words) (PI3K-Akt) | Akt activity after post-treatment following H2O2 (in words) (PI3K-Akt) | cell viability after post-treatment following Fe^3+ (in words) (astrocytes [8]) | reduction of production of ROS with respect to Fe^3+ alone (astrocytes [9]) | reduction of accumulation of iron against Fe^3+ alone (astrocytes [10]) | further results |
| --- | --- | --- | --- | --- | --- | --- | --- | --- | --- | --- | --- | --- | --- | --- | --- | --- | --- | --- | --- | --- | --- |
| OO [H2O2] |  |  |  |  |  |  |  |  |  |  |  |  |  |  |  |  |  |  |  |  | reduction of cell viability with respect to the control (astrocytes [1]; 200 μM H2O2): 46%; increase of production of intracellular ROS with respect to the control (astrocytes [2]; 200 μM stressor alone): about 30%; reduction of activity of ERK with respect to the control (ERK/MAPK [3]; 200 μM H2O2): about 6%; reduction of activity of Akt with respect to the control (PI3K-Akt; 200 μM H2O2): ~7% |
| C=C1CC[C@H](O)C/C1=C/C=C1\CCC[C@]2(C)[C@@H]([C@H](C)CCCC(C)C)CC[C@@H]12 [vitD, cholecalciferol] | about 22% | cell viability increased significantly | ~57% | significant increase of the red fluorescence | significantly inverted | reduction of the activity of p53 | reduced it significantly | results similar to those obtained for p53 | reduced | significantly reduced | significantly reduced | significant increase | restored the mechanism | activating ERK and Akt mediators | nullified the effects observed previously | activating ERK and Akt mediators | nullified the effects observed previously | cell viability leads to control values | ~83% | ~88% | reduction of activation of p53 with respect to 300 μM Fe^3+ (p53 [11]): ~88%; reduction of level of APP against 300 μM Fe^3+ [12]: ~55%; expression of SOD3 after Fe^3+ (in words) (SOD3 [13]): reduced; activation of ERK/MAPK with respect to 300 μM Fe^3+ (in words) (ERK/MAPK [14]): significant reduction; absorption capacity through the blood-brain barrier (basolateral volume analysis) with respect to the control [15]: about 49.5% |
| [Fe+3] [Fe^3+] |  |  |  |  |  |  |  |  |  |  |  |  |  |  |  |  |  |  |  |  | reduction of cell viability with respect to the control (astrocytes [8]; 300 μM Fe^3+, 6 days): about 23%; increase of production of intracellular ROS with respect to the control (astrocytes [9]; 300 μM Fe^3+, 6 days): about 60%; increase of intracellular iron accumulation with respect to the control (astrocytes [10]; 300 μM Fe^3+, 6 days): about 69%; increase of level of APP with respect to the control ([12]; 300 μM Fe^3+, 6 days): about 43% |
| O=C(O)CCCCC1CCSS1 (racemic) [LA, alpha-lipoic acid] | about 66% | cell viability increased significantly | about 43% | significant increase of the red fluorescence | significantly inverted | reduction of the activity of p53 | reduced it significantly | results similar to those obtained for p53 | reduced | significantly reduced | significantly reduced | significant increase | restored the mechanism | activating ERK and Akt mediators | nullified the effects observed previously | activating ERK and Akt mediators | nullified the effects observed previously | cell viability leads to control values | about 68% | about 81% | production of ROS without H2O2 (in words) (astrocytes [2]; 50 μM LA, 100 nM vitD, no H2O2, p>0.05 vs control): maintaining the production of ROS below the physiological level; reduction of activation of p53 with respect to 300 μM Fe^3+ (p53 [11]): about 84%; reduction of level of APP against 300 μM Fe^3+ [12]: about 63%; expression of SOD3 after Fe^3+ (in words) (SOD3 [13]): reduced; activation of ERK/MAPK with respect to 300 μM Fe^3+ (in words) (ERK/MAPK [14]): significant reduction; absorption capacity through the blood-brain barrier (basolateral volume analysis) with respect to the control [15]: ~40.5% |

Reference: patent publication US11998554B2, “Composition comprising lipoic acid and vitamin D for the prevention and the treatment of neurodegenerative diseases and peripheral neuropathies” (URIACH ITALY S.R.L., priority 2018, dated 2024)
